Read-outs that look alike come from different tables or passages of the source.
What was measured:
A2780 cells = test: In-vitro cell proliferation assay (SRB), A2780 cells; type: cell-based; details: Homo sapiens, A2780, 72 h, A2780 cells, 72 hours, read-out: A2780 IC50
Method: In-Vitro Cell Proliferation Assay
After overnight incubation at 37° C. and 5% CO2, the compound titrations were performed in a separate dilution plate by serially diluting the compounds in DMSO to make a 1000× stock. The compounds were then further diluted to 10× final concentration in culture media, whereupon 20 μL of each dilution was added to the plated cells with controls (e.g. DMSO and blank) to make a final volume of 200 μL. The final DMSO concentration in each well was 0.1%. The plates were then incubated for 72 hours at 37° C. in a 5% CO2 incubator. The number of viable cells was then assessed using sulforhodamine B (SRB) assay. Cells were fixed at 4° C. for 1 hour with the addition of 50 μL 30% trichloroacetic acid (TCA) to make a final concentration of 6% TCA. The plates were washed four times with H2O and allowed to dry for at least 1 hour, whereupon 100 μL of a 4% SRB in 1% acetic acid solution was added to each well and incubated at room temperature for at least 30 minutes. The plates were then washed three times with 1% acetic acid, dried, and treated with 100 μL of 10 mM Tris-Base solution. The plates were then read in a microplate reader at an absorbance of 570 nm. Background was generated on a separate plate with media only.
Method for Determining % Inhibition
First, the signals from the background plate are averaged, then the background was subtracted from the test plates.
wherein X denotes the compound concentration 1, Y denotes the compound concentration 2, XX denotes the % inhibition at compound concentration 1 (X), and YY denotes the % inhibition at compound concentration 2 (Y).

NAMPT = target: T1, NAMPT (Homo sapiens, UniProt P43490); test: Biochemical inhibition assay: NAMPT enzymatic reaction, NMN quantified by mass spectrometry; details: read-out: Biochem IC50
T1 construct: His tag; host or cells: E. coli
Method: Biochemical Inhibition Assay
NAMPT Protein Purification
Recombinant His-tagged NAMPT was produced in E. coli cells, purified over a Ni column, and further purified over a size-exclusion column by XTAL Biostructures.
The NAMPT Enzymatic Reaction
The NAMPT enzymatic reactions were carried out in Buffer A (50 mM Hepes pH 7.5, 50 mM NaCl, 5 mM MgCl2, and 1 mM THP) in 96-well V-bottom plates. The compound titrations were performed in a separate dilution plate by serially diluting the compounds in DMSO to make a 100× stock. […] The compound and enzyme mix was incubated for 15 minutes at room temperature, then 10 μL of 10× substrate and co-factors in Buffer A were added to the test well to make a final concentration of 1 μM NAM, 100 μM 5-Phospho-D-ribose 1-diphosphate (PRPP), and 2.5 mM Adenosine 5′-triphosphate (ATP). The reaction was allowed to proceed for 30 minutes at room temperature, then was quenched with the addition of 11 μL of a solution of formic acid and L-Cystathionine to make a final concentration of 1% formic acid and 10 μM L-Cystathionine. Background and signal strength was determined by addition (or non-addition) of a serial dilution of NMN to a pre-quenched enzyme and cofactor mix.
A mass spectrometry-based assay was used to measure the NAMPT reaction product (NMN) and the internal control (L-Cystathionine). NMN and L-Cystathionine were detected using the services of Biocius Lifesciences with the RapidFire system. In short, the NMN and L-Cystathionine are bound to a graphitic carbon cartridge in 0.1% formic acid, eluted in 30% acetonitrile buffer, and injected into a Sciex 4000 mass spectrometer. The components of the sample were ionized with electrospray ionization and the positive ions were detected. […] The fragments are quantified and the analyzed by the following method.
First the NMN signal is normalized to the L-Cystathionine signal by dividing the NMN signal by the L-Cystathionine signal for each well. The signal from the background wells are averaged and subtracted from the test plates. […] IC50s are Determined Using Excel and this Formula.

T1 sequence (P43490 whole entry): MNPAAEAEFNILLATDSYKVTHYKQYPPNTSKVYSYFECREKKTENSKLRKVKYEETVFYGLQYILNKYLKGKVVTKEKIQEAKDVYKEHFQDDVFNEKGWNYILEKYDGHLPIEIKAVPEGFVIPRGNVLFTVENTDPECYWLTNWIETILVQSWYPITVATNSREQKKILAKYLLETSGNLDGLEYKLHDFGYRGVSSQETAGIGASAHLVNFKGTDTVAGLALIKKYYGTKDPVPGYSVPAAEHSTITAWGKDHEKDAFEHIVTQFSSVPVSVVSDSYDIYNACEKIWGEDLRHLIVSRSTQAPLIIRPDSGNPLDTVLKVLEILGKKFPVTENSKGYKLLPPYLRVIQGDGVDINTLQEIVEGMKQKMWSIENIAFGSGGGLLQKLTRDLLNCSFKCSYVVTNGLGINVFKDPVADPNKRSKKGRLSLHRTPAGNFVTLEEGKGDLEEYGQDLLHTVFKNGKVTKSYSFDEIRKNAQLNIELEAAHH

SMILES	IC50 (A2780 cells; SRB assay) [nM]	IC50 (NAMPT; NAMPT enzymatic reaction) [nM]	IC50 (A2780 cells; SRB) [nM]	IC50 (NAMPT; NAMPT enzymatic assay) [nM]
COc1ccc(Cl)cc1S(=O)(=O)c1ccc(CNC(=O)c2cc3ccncc3s2)cc1 [N-({4-[(5-chloro-2-methoxybenzene)sulfonyl]phenyl}methyl)thieno[2,3-c]pyridine-2-carboxamide]	1.3	4	–	–
CN(C)C(=O)c1ccc(S(=O)(=O)c2ccc(CNC(=O)c3cc4cnccc4[nH]3)cc2)cc1 [N-[(4-{[4-(dimethylcarbamoyl)benzene]sulfonyl}phenyl)methyl]-1H-pyrrolo[3,2-c]pyridine-2-carboxamide]	14	27	–	–
O=C(NCc1ccc(S(=O)(=O)c2cccnc2)cc1)c1cnc2nccn2c1 [N-{[4-(pyridine-3-sulfonyl)phenyl]methyl}imidazo[1,2-a]pyrimidine-6-carboxamide]	–	–	100 to 1000	5.9
O=C(NCc1ccc(S(=O)(=O)c2cc(C(F)(F)F)ccc2OCc2ccccc2)cc1)c1cnc2[nH]ncc2c1 [N-[(4-{[2-(benzyloxy)-5-(trifluoromethyl)benzene]sulfonyl}phenyl)methyl]-1H-pyrazolo[3,4-b]pyridine-5-carboxamide]	–	–	100 to 1000	100 to 1000
COc1cc(S(=O)(=O)c2ccc(CNC(=O)c3cc4cnccc4[nH]3)cc2)ccc1C	–	7.9	3	–
CCOCc1ccccc1S(=O)(=O)c1ccc(CNC(=O)c2cc3ccncc3o2)cc1	–	–	26	13.3
Cc1ncccc1S(=O)(=O)c1ccc(CNC(=O)c2cc3ccncc3s2)cc1 [N-{[4-(2-methylpyridine-3-sulfonyl)phenyl]methyl}thieno[2,3-c]pyridine-2-carboxamide]	–	–	11.9	15.4
CCOc1ccc(S(=O)(=O)c2ccc(CNC(=O)c3cc4ccncc4o3)cc2)c(C)c1	–	21.6	27.4	–
Cc1cccc(S(=O)(=O)c2ccc(CNC(=O)c3cc4ccncc4s3)cc2)c1F	–	10.7	3.3	–
O=C(NCc1ccc(S(=O)(=O)c2cc(F)cc(Cl)c2)cc1)c1cc2cnccc2[nH]1	–	9.9	1.4	–
O=C(NCc1ccc(S(=O)(=O)c2cccc(-c3ccccc3)c2)cc1)c1cc2ccncc2o1 [N-({4-[(3-phenylbenzene)sulfonyl]phenyl}methyl)furo[2,3-c]pyridine-2-carboxamide]	–	13.7	23.4	–
O=C(NCc1ccc(S(=O)(=O)c2ccc(F)c(OCC(F)(F)F)c2)cc1)c1cc2ccncc2s1	–	–	11.8	3.3
COc1ccc(Cl)c(S(=O)(=O)c2ccc(CNC(=O)c3cnc4nccn4c3)cc2)c1	–	6.1	51.5	–
Cn1ncc2ccc(S(=O)(=O)c3ccc(CNC(=O)c4cc5ccncc5o4)cc3)cc21 [N-{[4-(1-methyl-1H-indazole-6-sulfonyl)phenyl]methyl}furo[2,3-c]pyridine-2-carboxamide]	–	–	3.4	4.7
COc1c(C)cc(S(=O)(=O)c2ccc(CNC(=O)c3cnc4[nH]ncc4c3)cc2)cc1C [N-({4-[(4-methoxy-3,5-dimethylbenzene)sulfonyl]phenyl}methyl)-1H-pyrazolo[3,4-b]pyridine-5-carboxamide]	–	5	1.85	–
O=C(NCc1ccc(S(=O)(=O)c2cccc3c2Oc2ccccc2S3)cc1)c1cc2ccncc2s1 [N-{[4-(phenoxathiine-4-sulfonyl)phenyl]methyl}thieno[2,3-c]pyridine-2-carboxamide]	1.7	4	–	–
O=C(NCc1ccc(S(=O)(=O)c2cccc(-c3ccccc3)c2)cc1)c1cc2cnccc2[nH]1	–	2.3	11.9	–
O=C(NCc1ccc(S(=O)(=O)c2ccccc2)cc1)c1ccc2ccncc2c1 [N-{[4-(benzenesulfonyl)phenyl]methyl}isoquinoline-7-carboxamide]	24000	219	–	–

SMILES	IC50 (A2780 cells; SRB assay) [nM]	IC50 (NAMPT; NAMPT enzymatic reaction) [nM]	IC50 (A2780 cells; SRB) [nM]	IC50 (NAMPT; NAMPT enzymatic assay) [nM]
CCc1ccc(S(=O)(=O)c2ccc(CNC(=O)c3cc4cnccc4[nH]3)cc2)cc1 [N-({4-[(4-ethylbenzene)sulfonyl]phenyl}methyl)-1H-pyrrolo[3,2-c]pyridine-2-carboxamide]	12	8	–	–
Cc1ccc(S(=O)(=O)c2ccc(CNC(=O)c3ccc4nccn4c3)cc2)cc1F [N-({4-[(3-fluoro-4-methylbenzene)sulfonyl]phenyl}methyl)imidazo[1,2-a]pyridine-6-carboxamide]	–	13.3	3.78	–
O=C(NCc1ccc(S(=O)(=O)c2csc(-c3cccc(F)c3)n2)cc1)c1cnc2nccn2c1 [N-({4-[2-(3-fluorophenyl)-1,3-thiazole-4-sulfonyl]phenyl}methyl)imidazo[1,2-a]pyrimidine-6-carboxamide]	–	–	6.9	1
CCCCOc1ccc(S(=O)(=O)c2ccc(CNC(=O)c3cc4ccncc4o3)cc2)c(C)c1	–	16	64.8	–
O=C(NCc1ccc(S(=O)(=O)c2cccc(C(F)(F)F)c2)cc1)c1ccc2ncsc2c1	–	–	548	6
O=C(NCc1ccc(S(=O)(=O)c2ccccn2)cc1)c1cc2ccncc2o1 [N-{[4-(pyridine-2-sulfonyl)phenyl]methyl}furo[2,3-c]pyridine-2-carboxamide]	–	–	87	55.1
O=C(NCc1ccc(S(=O)(=O)c2ccc3c(c2)OCCO3)cc1)c1cnc2nccn2c1 [N-{[4-(2,3-dihydro-1,4-benzodioxine-6-sulfonyl)phenyl]methyl}imidazo[1,2-a]pyrimidine-6-carboxamide]	–	–	0.5	0.2
O=C(NCc1ccc(S(=O)(=O)c2cnc3ccccc3c2)cc1)c1ccc2nccn2c1 [N-{[4-(quinoline-3-sulfonyl)phenyl]methyl}imidazo[1,2-a]pyridine-6-carboxamide]	–	–	1	14
CC(C)COc1cccc(S(=O)(=O)c2ccc(CNC(=O)c3cc4ccncc4o3)cc2)c1	–	–	67.7	14.8
COc1cc(Cl)c(C)cc1NS(=O)(=O)c1ccc(CNC(=O)c2cc3cnccc3[nH]2)cc1 [N-({4-[(4-chloro-2-methoxy-5-methylphenyl)sulfamoyl]phenyl}methyl)-1H-pyrrolo[3,2-c]pyridine-2-carboxamide]	18300	7840	–	–
COc1ccc(C(C)C)cc1S(=O)(=O)c1ccc(CNC(=O)c2cnc3[nH]ncc3c2)cc1 [N-[(4-{[2-methoxy-5-(propan-2-yl)benzene]sulfonyl}phenyl)methyl]-1H-pyrazolo[3,4-b]pyridine-5-carboxamide]	–	–	29.4	89.2
O=C(NCc1ccc(S(=O)(=O)c2ccc(-n3cccn3)cc2)cc1)c1cnc2[nH]ncc2c1	–	–	7.5	12.3
CCCOc1ccc(S(=O)(=O)c2ccc(CNC(=O)c3ccc4nccn4c3)cc2)cc1	–	6.1	1.9	–
COc1ccc(C(C)C)cc1S(=O)(=O)c1ccc(CNC(=O)c2cc3ccncc3o2)cc1	–	–	12.4	15.4
COc1ccc(Cl)cc1S(=O)(=O)c1ccc(CNC(=O)c2cc3cnccc3[nH]2)cc1 [N-({4-[(5-chloro-2-methoxybenzene)sulfonyl]phenyl}methyl)-1H-pyrrolo[3,2-c]pyridine-2-carboxamide]	2	6	–	–
CCNC(=O)c1cccc(S(=O)(=O)c2ccc(CNC(=O)c3cc4ccncc4o3)cc2)c1	–	–	6.4	6
CC(C)CNC(=O)c1cccc(S(=O)(=O)c2ccc(CNC(=O)c3cc4ccncc4o3)cc2)c1	–	–	26.3	16.9
COc1ccccc1S(=O)(=O)c1ccc(CNC(=O)c2cc3cnccc3[nH]2)cc1 [N-({4-[(2-methoxybenzene)sulfonyl]phenyl}methyl)-1H-pyrrolo[3,2-c]pyridine-2-carboxamide]	7	9	–	–

From US12336981B2, “Compounds and compositions for the inhibition of NAMPT” (Valo Health, Inc., priority 2010, dated 2025)
